Reference: the NIST ThermoML archive (doi:10.1021/je5010214)

Conditions: Liquid, Vibrating tube method

CCCCO [butan-1-ol]
Conditions | mass density [kg/m3]
343.15 K, 44927 kPa | 804.186
343.15 K, 47908 kPa | 806.033
343.15 K, 50059 kPa | 807.349
343.15 K, 52026 kPa | 808.534
343.15 K, 59944 kPa | 813.181
343.15 K, 61967 kPa | 814.212
343.15 K, 65070 kPa | 815.911
343.15 K, 66059 kPa | 816.518
343.16 K, 34034 kPa | 797.101
343.16 K, 54919 kPa | 810.24
343.16 K, 57986 kPa | 812.021
348.15 K, 88.8 kPa | 765.578
348.15 K, 462.2 kPa | 765.945
348.15 K, 859.8 kPa | 766.355
348.15 K, 974.2 kPa | 766.465
348.15 K, 1974.9 kPa | 767.461
348.15 K, 3051.1 kPa | 768.513
348.15 K, 5094 kPa | 770.529
348.15 K, 10025 kPa | 775.087
348.15 K, 14792 kPa | 779.258
348.15 K, 20111 kPa | 783.649
348.15 K, 22163 kPa | 785.27
348.15 K, 28080 kPa | 789.8
348.15 K, 30149 kPa | 791.333
348.15 K, 32161 kPa | 792.797
348.15 K, 33959 kPa | 793.985
348.15 K, 35045 kPa | 794.751
348.15 K, 37937 kPa | 796.729
348.15 K, 40026 kPa | 798.192
348.15 K, 42066 kPa | 799.57
348.15 K, 47915 kPa | 803.304
348.15 K, 49950 kPa | 804.611
348.15 K, 52167 kPa | 805.991
348.15 K, 55022 kPa | 807.759
348.15 K, 57945 kPa | 809.531
348.15 K, 60030 kPa | 810.761
348.15 K, 64942 kPa | 813.608
348.15 K, 66153 kPa | 814.319
348.16 K, 291.7 kPa | 765.77
348.16 K, 7050.2 kPa | 772.352
348.16 K, 9003.2 kPa | 774.145
348.16 K, 12187 kPa | 777.001
348.16 K, 17899 kPa | 781.843
348.16 K, 25100 kPa | 787.55
348.16 K, 32942 kPa | 793.364
348.16 K, 45051 kPa | 801.465
348.16 K, 62063 kPa | 811.961
353.15 K, 86.2 kPa | 760.995
353.15 K, 336 kPa | 761.273
353.15 K, 572.6 kPa | 761.533
353.15 K, 926 kPa | 761.914
353.15 K, 1016.4 kPa | 762.008
353.15 K, 2992.1 kPa | 764.106
353.15 K, 4963.9 kPa | 766.051
353.15 K, 7000.9 kPa | 768.126
353.15 K, 9062.3 kPa | 770.136
353.15 K, 10005 kPa | 771.015
353.15 K, 12128 kPa | 772.98
353.15 K, 14954 kPa | 775.544
353.15 K, 17977 kPa | 778.173
353.15 K, 19937 kPa | 779.792
353.15 K, 21894 kPa | 781.405
353.15 K, 24908 kPa | 783.869
353.15 K, 27850 kPa | 786.199
353.15 K, 29936 kPa | 787.797
353.15 K, 31876 kPa | 789.263
353.15 K, 32961 kPa | 790.048
353.15 K, 34945 kPa | 791.423
353.15 K, 37913 kPa | 793.571
353.15 K, 40143 kPa | 795.172
353.15 K, 42067 kPa | 796.559
353.15 K, 45002 kPa | 798.55
353.15 K, 48029 kPa | 800.525
353.15 K, 50145 kPa | 801.944
353.15 K, 52082 kPa | 803.184
353.15 K, 55132 kPa | 805.077
353.15 K, 57980 kPa | 806.879
353.15 K, 60098 kPa | 808.146
